Experimental data taken from patent US11390597B2, “Salt and solid state forms of escitalopram” (priority 2017, dated 2022).

What was measured:
[1] = Comparative pharmacokinetics of escitalopram salts, IV and SC administration in rats; type: in vivo; settings: Sprague dawley rats, single IV dose 1 mg/kg or SC dose 5 mg/kg, blood analyzed for escitalopram
Method: Escitalopram salt solutions are prepared for intravenous (IV) and/or subcutaneous (SC) administration as follows: A 1 mg/kg solution of escitalopram oxalate (Ox-Esc) is prepared for IV administration at 1 mL/kg in 10% DMSO, 30% Solutol® (polyoxyethylated 12-hydroxystearic acid), 60% PBS.
A 1 mg/kg solution of escitalopram pamoate (P-Esc) is prepared for IV administration 1 mL/kg in 10% DMSO, 30% Solutol®, 60% PBS, and for SC administration 200 uL of 5 mg/kg in DMSO.
(§1) The pharmacokinetics of IV administered escitalopram oxalate are determined as follows. […] Blood is collected from rats post dose in EDTA K2 tubes in a staggered design (cohort 1: 0 min, 30 min, 4 hr, 24 hr; cohort 2: 5 min, 1 hr, 8 hr, 36 hr; cohort 3: 15 min, 2 hr, 12 hr, 48 hr) and analyzed for escitalopram.
as §1, with “pamoate” for “oxalate”
The pharmacokinetics of SC administered escitalopram pamoate are determined as follows. […] Blood is collected from rats post dose in EDTA K2 tubes in a staggered design (cohort 1: 0 min, 1 hr, 8 hr, 48 hr; cohort 2: 5 min, 2 hr, 24 hr, 72 hr; cohort 3: 30 min, 4 hr, 36 hr, 96 hr) and analyzed for escitalopram. […]

[2] = Treatment of human subjects with escitalopram gentisate composition; type: in vivo; settings: human subject afflicted with a neuropsychiatric disorder, periodic administration (IV, oral, subcutaneous)
From the text: Periodic administration is meant to include inter alia IV, oral and subcutaneous administration.

## CN(C)CCCC1(c2ccc(F)cc2)OCc2cc(C#N)ccc21.O=C(O)c1cc(O)ccc1O (centres unmarked) [escitalopram gentisate]
[1]
  pharmacokinetic profile compared with pamoate and oxalate salts: distinct from those of the pamoate and oxalate salts
[2]
  reducing or eliminating the symptoms of the neuropsychiatric disorder: clinically meaningful advantage in reducing or eliminating the symptoms
